Data taken from patent US12187719B2, “Proteolysis targeting chimera (PROTACS) as degraders of SMARCA2 and /or SMARCA4” (Boehringer Ingelheim International GmbH, priority 2018, dated 2025).

Legend:
SMARCA2 = biological target: T1, SMARCA2 (Homo sapiens, UniProt P51531); experiment: Protein degradation assay in A549 cells, SMARCA2 levels by WES capillary electrophoresis; assay type: cell-based; details: A549 (NSCLC) cells with SMARCA4 mutation corrected to wild type, 18 h incubation; for DC50: concentration at which half maximal degradation is achieved, normalised to GAPDH; for Dmax: maximal amount of degraded protein relative to initial levels
T1 construct: such that the cells express both SMARCA2 and SMARCA4; endogenous in cells; host or cells: A549 (NSCLC) cells with SMARCA4 mutation corrected to wild type
T1 sequence (P51531 whole entry): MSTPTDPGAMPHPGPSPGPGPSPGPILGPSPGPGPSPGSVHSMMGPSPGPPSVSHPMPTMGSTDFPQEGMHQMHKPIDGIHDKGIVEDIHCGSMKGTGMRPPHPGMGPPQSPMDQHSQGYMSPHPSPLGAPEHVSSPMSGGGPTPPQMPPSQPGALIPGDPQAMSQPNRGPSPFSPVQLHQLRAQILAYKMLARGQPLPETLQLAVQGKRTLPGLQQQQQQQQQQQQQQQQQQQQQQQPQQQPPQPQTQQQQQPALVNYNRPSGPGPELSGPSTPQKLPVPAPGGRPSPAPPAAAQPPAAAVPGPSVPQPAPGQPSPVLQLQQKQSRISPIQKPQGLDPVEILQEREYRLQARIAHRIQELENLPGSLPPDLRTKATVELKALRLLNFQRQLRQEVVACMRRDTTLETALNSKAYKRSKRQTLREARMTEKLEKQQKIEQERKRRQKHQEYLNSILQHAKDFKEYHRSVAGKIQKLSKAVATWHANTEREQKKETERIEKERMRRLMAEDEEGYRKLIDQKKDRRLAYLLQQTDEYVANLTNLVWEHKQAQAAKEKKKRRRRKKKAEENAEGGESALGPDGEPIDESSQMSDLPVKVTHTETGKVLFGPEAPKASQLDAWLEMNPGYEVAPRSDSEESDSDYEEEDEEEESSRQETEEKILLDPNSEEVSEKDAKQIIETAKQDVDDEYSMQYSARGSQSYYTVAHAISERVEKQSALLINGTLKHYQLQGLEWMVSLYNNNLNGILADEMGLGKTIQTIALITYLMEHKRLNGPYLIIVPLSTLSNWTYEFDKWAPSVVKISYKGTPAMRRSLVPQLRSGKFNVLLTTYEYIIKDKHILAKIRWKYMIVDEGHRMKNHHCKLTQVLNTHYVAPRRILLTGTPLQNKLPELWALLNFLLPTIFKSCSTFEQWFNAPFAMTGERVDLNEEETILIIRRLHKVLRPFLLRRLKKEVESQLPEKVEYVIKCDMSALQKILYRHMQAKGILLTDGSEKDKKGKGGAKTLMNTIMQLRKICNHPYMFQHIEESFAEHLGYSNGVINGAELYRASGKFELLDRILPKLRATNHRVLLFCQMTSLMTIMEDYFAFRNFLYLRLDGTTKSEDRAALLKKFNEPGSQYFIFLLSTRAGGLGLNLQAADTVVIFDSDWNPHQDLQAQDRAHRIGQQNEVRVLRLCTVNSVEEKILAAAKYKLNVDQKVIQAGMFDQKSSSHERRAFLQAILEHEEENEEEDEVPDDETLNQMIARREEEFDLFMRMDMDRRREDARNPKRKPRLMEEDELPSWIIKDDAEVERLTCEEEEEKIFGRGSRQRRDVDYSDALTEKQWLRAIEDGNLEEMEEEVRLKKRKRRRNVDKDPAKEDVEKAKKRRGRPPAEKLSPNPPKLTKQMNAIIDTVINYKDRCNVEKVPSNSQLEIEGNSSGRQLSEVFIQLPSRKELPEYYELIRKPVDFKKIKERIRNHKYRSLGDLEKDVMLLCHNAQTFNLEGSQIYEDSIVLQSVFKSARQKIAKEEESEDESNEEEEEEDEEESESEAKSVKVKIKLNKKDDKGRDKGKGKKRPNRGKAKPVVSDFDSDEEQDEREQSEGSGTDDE
Procedure: (§1) For the protein degradation assay, A549 (NSCLC) cells are used in which the inactivating SMARCA4 mutation has been corrected to wild type, such that the cells express both SMARCA2 and SMARCA4. 35000 cells in F12K Medium +10% FBS (100 μL/well) are seeded in a Greiner 96 well F-bottom plate and incubated at 37° C. overnight. Compounds are added from DMSO stock solution using ECHO Access™ workstation or HP D300 Digital Dispenser and cells are incubated at 37° C. for 18 h. Medium is removed, cells are washed with PBS, PBS is removed and 30 μL cold Lysis Buffer (1% Triton, 350 mM KCl, 10 mM Tris, Halt Phosphatase-Protease Inhibitors, 10 mM DTT, Benzonase 0.5 μL/mL) is added to each well. Cells are lysed for 20 min at 4° C. on a bioshake at 800 rpm before insoluble debris is pelleted by centrifugation for 20 min at 4000 rpm at 4° C. The supernatant is transferred to a fresh PCR plate. SMARCA2 levels are determined on a WES capillary electrophoresis instrument (Proteinsimple) using rabbit anti-SMARCA2 antibody (1:25, Sigma #HPA029981), SMARCA4 antibody (CellSignaling #49360, 1:25), PBRM1 antibody (Bethyl #A301-591A-M, 1:40) and anti-GAPDH antibody (1:100, Abcam #ab9485) for normalization.
The compounds 1-1 to 1-18 according to the invention have been tested in the above described assay. The majority of the compounds show degradation of SMARCA2 and SMARCA4 protein in A549 cells with DC50 in the range of 10-1000 nM (i.e. compound concentration at which half maximal degradation is achieved). The Dmax represents the efficiency of degradation and gives the maximal amount of degraded protein relative to initial levels. The majority of the compounds reach degradation levels >80%.

SMARCA4 = biological target: T2, SMARCA4 (Homo sapiens, UniProt P51532); experiment: Protein degradation assay in A549 cells, SMARCA4 levels by WES capillary electrophoresis; assay type: cell-based; details: A549 (NSCLC) cells with SMARCA4 mutation corrected to wild type, 18 h incubation; for DC50: concentration at which half maximal degradation is achieved, normalised to GAPDH; for Dmax: maximal amount of degraded protein relative to initial levels
T2 construct: endogenous in cells; host or cells: A549 (NSCLC) cells with SMARCA4 mutation corrected to wild type
T2 sequence (P51532 whole entry): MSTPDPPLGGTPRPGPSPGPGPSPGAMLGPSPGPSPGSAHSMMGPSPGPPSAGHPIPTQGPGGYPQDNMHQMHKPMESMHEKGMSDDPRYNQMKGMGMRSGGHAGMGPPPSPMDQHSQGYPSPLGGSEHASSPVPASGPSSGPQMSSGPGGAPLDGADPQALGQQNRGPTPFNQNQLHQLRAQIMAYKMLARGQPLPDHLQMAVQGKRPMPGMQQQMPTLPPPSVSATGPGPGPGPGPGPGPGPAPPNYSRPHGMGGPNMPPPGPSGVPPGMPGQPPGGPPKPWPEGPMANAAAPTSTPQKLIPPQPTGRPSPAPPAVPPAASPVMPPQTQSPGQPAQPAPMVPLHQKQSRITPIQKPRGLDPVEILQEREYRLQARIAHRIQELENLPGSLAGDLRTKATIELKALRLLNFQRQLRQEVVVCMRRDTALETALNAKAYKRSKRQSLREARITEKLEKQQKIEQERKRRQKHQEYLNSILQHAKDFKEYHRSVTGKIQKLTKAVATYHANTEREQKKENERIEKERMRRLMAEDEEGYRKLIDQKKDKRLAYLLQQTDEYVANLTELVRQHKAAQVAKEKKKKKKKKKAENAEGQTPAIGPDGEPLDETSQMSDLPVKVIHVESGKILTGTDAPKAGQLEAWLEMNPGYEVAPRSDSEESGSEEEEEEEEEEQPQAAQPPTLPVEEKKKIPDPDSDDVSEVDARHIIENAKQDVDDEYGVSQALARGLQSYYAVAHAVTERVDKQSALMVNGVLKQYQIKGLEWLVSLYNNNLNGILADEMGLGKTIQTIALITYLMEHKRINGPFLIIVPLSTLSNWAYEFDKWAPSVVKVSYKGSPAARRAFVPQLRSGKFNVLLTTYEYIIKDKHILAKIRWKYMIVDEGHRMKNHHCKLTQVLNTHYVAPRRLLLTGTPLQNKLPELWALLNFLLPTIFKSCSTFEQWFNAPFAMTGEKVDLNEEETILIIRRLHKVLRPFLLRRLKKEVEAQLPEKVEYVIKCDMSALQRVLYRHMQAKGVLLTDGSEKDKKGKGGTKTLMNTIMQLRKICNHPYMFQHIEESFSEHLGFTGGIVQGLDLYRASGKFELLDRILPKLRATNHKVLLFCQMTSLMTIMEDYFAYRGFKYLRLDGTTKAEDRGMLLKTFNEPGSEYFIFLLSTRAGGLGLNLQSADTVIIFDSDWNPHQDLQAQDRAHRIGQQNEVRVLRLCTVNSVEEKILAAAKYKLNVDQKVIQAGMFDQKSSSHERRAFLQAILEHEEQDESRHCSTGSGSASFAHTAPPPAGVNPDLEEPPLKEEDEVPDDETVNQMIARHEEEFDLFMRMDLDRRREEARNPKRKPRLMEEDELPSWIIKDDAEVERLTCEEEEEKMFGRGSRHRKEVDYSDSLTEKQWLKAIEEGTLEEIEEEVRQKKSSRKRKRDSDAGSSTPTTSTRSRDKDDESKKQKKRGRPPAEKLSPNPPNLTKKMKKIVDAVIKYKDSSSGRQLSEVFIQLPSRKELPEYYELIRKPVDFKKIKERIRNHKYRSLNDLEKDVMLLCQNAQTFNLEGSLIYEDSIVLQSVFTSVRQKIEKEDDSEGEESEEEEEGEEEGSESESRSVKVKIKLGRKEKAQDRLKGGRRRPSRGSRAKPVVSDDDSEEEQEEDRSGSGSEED
Procedure: as §1
The Dmax represents the efficiency of degradation and gives the maximal amount of degraded protein relative to initial levels.

In the case of `Cc1ncsc1-c1ccc(CNC(=O)[C@@H]2C[C@@H](O)CN2C(=O)[C@@H](NC(=O)C2(F)CC2)C(C)(C)C)c(OCCCCCCCN2CCN(c3cc(-c4ccccc4O)nnc3N)CC2)c1` [Compound I-1], the DC50 (SMARCA2) is reported as 450 nM, the Dmax (SMARCA2) is reported as 45% and the DC50 (SMARCA4) is reported as 1240 nM. The Dmax (SMARCA4) was 70%.

`Cc1ncsc1-c1ccc(CNC(=O)[C@@H]2C[C@@H](O)CN2C(=O)[C@@H](NC(=O)C2(F)CC2)C(C)(C)C)c(OCCc2ccc(CN3CCN(c4cc(-c5ccccc5O)nnc4N)CC3)cc2)c1` [Compound I-2] showed a DC50 (SMARCA2) of 67 nM, a Dmax (SMARCA2) of 91% and a DC50 (SMARCA4) of 117 nM. The Dmax (SMARCA4) was 93%.

With `Cc1ncsc1-c1ccc(CNC(=O)[C@@H]2C[C@@H](O)CN2C(=O)[C@@H](NC(=O)C2(F)CC2)C(C)(C)C)c(OCCCOCCN2CCN(c3cc(-c4ccccc4O)nnc3N)CC2)c1` [Compound I-3] the DC50 (SMARCA4) was 2040 nM and the Dmax (SMARCA4) was 100%.

`Cc1ncsc1-c1ccc(CNC(=O)[C@@H]2C[C@@H](O)CN2C(=O)[C@@H](NC(=O)C2(F)CC2)C(C)(C)C)c(OCCCCOCCN2CCN(c3cc(-c4ccccc4O)nnc3N)CC2)c1` [Compound I-4] gave a DC50 (SMARCA2) of 1000 nM, a Dmax (SMARCA2) of 70% and a DC50 (SMARCA4) of 735 nM. For the same compound, the Dmax (SMARCA4) was 87%.

With `Cc1ncsc1-c1ccc(CNC(=O)[C@@H]2C[C@@H](O)CN2C(=O)[C@@H](NC(=O)C2(F)CC2)C(C)(C)C)c(OCCOCCOCCN2CCN(c3cc(-c4ccccc4O)nnc3N)CC2)c1` [Compound I-5] the DC50 (SMARCA2) was 2540 nM, the Dmax (SMARCA2) was 89% and the Dmax (SMARCA4) was 84%.

In the case of `Cc1ncsc1-c1ccc(CNC(=O)[C@@H]2C[C@@H](O)CN2C(=O)[C@@H](NC(=O)C2(F)CC2)C(C)(C)C)c(OCCCCCCCOCCN2CCN(c3cc(-c4ccccc4O)nnc3N)CC2)c1` [Compound I-6], the DC50 (SMARCA2) is reported as 172 nM, the Dmax (SMARCA2) is reported as 83% and the DC50 (SMARCA4) is reported as 219 nM. For the same compound, the Dmax (SMARCA4) was 89%.

In the case of `Cc1ncsc1-c1ccc(CNC(=O)[C@@H]2C[C@@H](O)CN2C(=O)[C@@H](NC(=O)C2(F)CC2)C(C)(C)C)c(OCCOc2ccc(CN3CCN(c4cc(-c5ccccc5O)nnc4N)CC3)cc2)c1` [Compound I-7], the DC50 (SMARCA2) is reported as 12 nM, the Dmax (SMARCA2) is reported as 98% and the DC50 (SMARCA4) is reported as 16 nM. For the same compound, the Dmax (SMARCA4) was 97%.

`Cc1ncsc1-c1ccc(CNC(=O)[C@@H]2C[C@@H](O)CN2C(=O)[C@@H](NC(=O)C2(F)CC2)C(C)(C)C)c(OCc2ccc(CN3CCN(c4cc(-c5ccccc5O)nnc4N)CC3)cc2)c1` [Compound I-8] gave a DC50 (SMARCA2) of 56 nM, a Dmax (SMARCA2) of 88% and a DC50 (SMARCA4) of 168 nM. It also gave a Dmax (SMARCA4) of 59%.

`Cc1ncsc1-c1ccc(CNC(=O)[C@@H]2C[C@@H](O)CN2C(=O)[C@@H](NC(=O)C2(F)CC2)C(C)(C)C)c(OCCCCOc2ccc(CN3CCN(c4cc(-c5ccccc5O)nnc4N)CC3)cc2)c1` [Compound I-9] showed a DC50 (SMARCA2) of 236 nM, a Dmax (SMARCA2) of 85% and a DC50 (SMARCA4) of 170 nM. The Dmax (SMARCA4) was 83%.

`Cc1ncsc1-c1ccc(CNC(=O)[C@@H]2C[C@@H](O)CN2C(=O)[C@@H](NC(=O)C2(F)CC2)C(C)(C)C)c(OCCc2ccc(OCCN3CCN(c4cc(-c5ccccc5O)nnc4N)CC3)cc2)c1` [Compound I-10] gave a DC50 (SMARCA2) of 41 nM, a Dmax (SMARCA2) of 99% and a DC50 (SMARCA4) of 26 nM. The Dmax (SMARCA4) was 99%.

Work on `Cc1ncsc1-c1ccc(CNC(=O)[C@@H]2C[C@@H](O)CN2C(=O)[C@@H](NC(=O)C2(F)CC2)C(C)(C)C)c(OCCCOc2ccc(CN3CCN(c4cc(-c5ccccc5O)nnc4N)CC3)cc2)c1` [Compound I-11] yielded a DC50 (SMARCA2) of 26 nM, a Dmax (SMARCA2) of 99% and a DC50 (SMARCA4) of 16 nM. For the same compound, the Dmax (SMARCA4) was 100%.

Work on `Cc1ncsc1-c1ccc(CNC(=O)[C@@H]2C[C@@H](O)CN2C(=O)[C@@H](NC(=O)C2(F)CC2)C(C)(C)C)c(OCc2ccc(CCN3CCN(c4cc(-c5ccccc5O)nnc4N)CC3)cc2)c1` [Compound I-12] yielded a DC50 (SMARCA2) of about 1000 nM and a Dmax (SMARCA2) of 40%.

`Cc1ncsc1-c1ccc(CNC(=O)[C@@H]2C[C@@H](O)CN2C(=O)[C@@H](NC(=O)C2(F)CC2)C(C)(C)C)c(OCCc2cccc(CN3CCN(c4cc(-c5ccccc5O)nnc4N)CC3)c2)c1` [Compound I-13] gave a DC50 (SMARCA2) of 189 nM, a Dmax (SMARCA2) of 88% and a DC50 (SMARCA4) of 634 nM. For the same compound, the Dmax (SMARCA4) was 97%.

`Cc1ncsc1-c1ccc(CNC(=O)[C@@H]2C[C@@H](O)CN2C(=O)[C@@H](NC(=O)C2(F)CC2)C(C)(C)C)c(OCCCc2ccc(CN3CCN(c4cc(-c5ccccc5O)nnc4N)CC3)cc2)c1` [Compound I-14] was tested, and the DC50 (SMARCA2) was 58 nM, the Dmax (SMARCA2) was 90% and the DC50 (SMARCA4) was 25 nM. It also gave a Dmax (SMARCA4) of 92%.

`Cc1ncsc1-c1ccc(CNC(=O)[C@@H]2C[C@@H](O)CN2C(=O)[C@@H](NC(=O)C2(F)CC2)C(C)(C)C)c(OCCc2ccc(C(=O)N3CCN(c4cc(-c5ccccc5O)nnc4N)CC3)cc2)c1` [Compound I-18] was tested, and the DC50 (SMARCA2) was 525 nM, the Dmax (SMARCA2) was 98% and the DC50 (SMARCA4) was 188 nM. For the same compound, the Dmax (SMARCA4) was 81%.
